# From patent publication US9085550B2, “Ligands for estrogen related receptors and methods for synthesis of said ligands” (CITY OF HOPE, priority 2005, dated 2015)
# What was measured:
# Format in all cases: cell-based
# human ERα = target: T1, human ERα (Homo sapiens, UniProt P03372); test: ERE-TK-luc reporter transactivation assay in CV-1 cells, full-length hERa
# T1 construct: Human ERα and ERβ were examined as full-length proteins using an estrogen receptor responsive reporter construct; expressed in transfected cells; host or cells: CV-1
# T1 sequence (P03372 1-595): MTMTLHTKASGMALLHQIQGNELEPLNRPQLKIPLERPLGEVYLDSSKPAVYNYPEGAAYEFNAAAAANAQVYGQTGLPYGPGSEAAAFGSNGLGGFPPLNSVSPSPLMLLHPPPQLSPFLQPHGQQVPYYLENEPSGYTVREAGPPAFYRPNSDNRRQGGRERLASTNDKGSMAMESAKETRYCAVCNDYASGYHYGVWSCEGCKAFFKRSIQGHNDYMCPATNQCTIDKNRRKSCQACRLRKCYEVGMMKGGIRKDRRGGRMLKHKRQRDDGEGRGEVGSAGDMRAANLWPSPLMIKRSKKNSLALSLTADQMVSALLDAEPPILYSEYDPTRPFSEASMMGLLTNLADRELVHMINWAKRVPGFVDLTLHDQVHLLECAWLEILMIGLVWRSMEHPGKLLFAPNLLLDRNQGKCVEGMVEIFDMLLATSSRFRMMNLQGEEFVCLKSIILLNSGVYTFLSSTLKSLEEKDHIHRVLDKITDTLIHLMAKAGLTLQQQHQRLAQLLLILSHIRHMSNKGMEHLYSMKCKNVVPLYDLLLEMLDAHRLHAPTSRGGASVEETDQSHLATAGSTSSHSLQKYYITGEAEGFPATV
# Experimental: (§1) Human ERα and ERβ were examined as full-length proteins using an estrogen receptor responsive reporter construct.
# (§2) Suitable reporter gene constructs are well known to skilled workers in the fields of biochemistry and molecular biology. […] Other vectors known in the art can be used in the methods of the present invention.
# (§3) CV-1 cells for the activation assays were grown in Dulbecco's modified Eagle's medium supplemented with 10% resin charcoal-stripped fetal bovine serum, 50 U/ml penicillin G and 50 μg/ml streptomycin sulfate (DMEM-FBS) at 37° C. in 5% CO2. One day prior to transfection, cells were plated to 50-80% confluence using phenol red free DMEM-FBS.
# [1] = target: T2, GAL-L-hERRb (human ERRβ ligand binding domain fused to GAL4 DNA binding domain) (Homo sapiens, UniProt O95718); test: GAL4 reporter transactivation assay in CV-1 cells, GAL-L-hERRb; settings: for Fold activation, GAL-L-hERRb + PGC-1a / Fold activation, GAL-L-hERRb: CV-1; for Fold activation, GAL-L-hERRb + PGC-1a: reporter 0.42:vector 0.00875:PGC-1a 0.035; for Fold activation, GAL-L-hERRb: reporter 0.42:vector 0.00875, no PGC-1a
# T2 construct: expressed in transfected cells; host or cells: CV-1
# T2 sequence (O95718 208-432 limits assumed): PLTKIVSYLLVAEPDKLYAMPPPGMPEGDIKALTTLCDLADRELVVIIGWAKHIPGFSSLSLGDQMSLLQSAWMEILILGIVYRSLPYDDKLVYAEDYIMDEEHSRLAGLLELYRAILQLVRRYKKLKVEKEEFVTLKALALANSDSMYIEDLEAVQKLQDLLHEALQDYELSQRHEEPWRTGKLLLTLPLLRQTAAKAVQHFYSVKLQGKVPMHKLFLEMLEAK
# [2] = target: T3, GAL-mERRg (mouse ERRγ ligand binding domain fused to GAL4 DNA binding domain) (Mus musculus, UniProt P62509); test: GAL4 reporter transactivation assay in CV-1 cells, GAL-mERRg; settings: for Fold activation, GAL-mERRg + PGC-1a / Fold activation, GAL-mERRg: CV-1; for Fold activation, GAL-mERRg + PGC-1a: reporter 0.42:vector 0.00875:PGC-1a 0.035; for Fold activation, GAL-mERRg: reporter 0.42:vector 0.00875, no PGC-1a
# T3 construct: expressed in transfected cells; host or cells: CV-1
# T3 sequence (P62509 233-457 limits assumed): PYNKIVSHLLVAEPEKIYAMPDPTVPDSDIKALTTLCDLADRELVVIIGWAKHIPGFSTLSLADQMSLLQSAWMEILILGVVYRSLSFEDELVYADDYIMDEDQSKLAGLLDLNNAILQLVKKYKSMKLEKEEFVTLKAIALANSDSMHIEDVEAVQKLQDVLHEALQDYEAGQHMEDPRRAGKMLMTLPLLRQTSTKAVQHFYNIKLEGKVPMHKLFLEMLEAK
# human ERβ = target: T4, human ERβ (Homo sapiens, UniProt Q92731); test: ERE-TK-luc reporter transactivation assay in CV-1 cells, full-length hERb
# T4 construct: Human ERα and ERβ were examined as full-length proteins using an estrogen receptor responsive reporter construct; expressed in transfected cells; host or cells: CV-1
# Experimental: as §1, §2, §3
# [3] = target: T5, GAL-hERRa (human ERRα ligand binding domain fused to GAL4 DNA binding domain) (Homo sapiens, UniProt P11474); test: GAL4 reporter transactivation assay in CV-1 cells, GAL-hERRa; settings: for Fold activation, GAL-hERRa + PGC-1a / Fold activation, GAL-hERRa: CV-1; for Fold activation, GAL-hERRa + PGC-1a: reporter 0.42:vector 0.00875:PGC-1a 0.035; for Fold activation, GAL-hERRa: reporter 0.42:vector 0.00875, no PGC-1a
# T5 construct: expressed in transfected cells; host or cells: CV-1
# T5 sequence (P11474 193-421 limits assumed): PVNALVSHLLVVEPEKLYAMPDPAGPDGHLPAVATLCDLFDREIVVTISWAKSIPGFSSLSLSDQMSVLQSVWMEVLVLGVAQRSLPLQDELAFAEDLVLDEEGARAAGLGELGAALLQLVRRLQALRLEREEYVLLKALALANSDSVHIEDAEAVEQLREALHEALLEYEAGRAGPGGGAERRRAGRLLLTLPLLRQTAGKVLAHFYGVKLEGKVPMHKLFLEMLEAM
# T4 sequence (Q92731 whole entry): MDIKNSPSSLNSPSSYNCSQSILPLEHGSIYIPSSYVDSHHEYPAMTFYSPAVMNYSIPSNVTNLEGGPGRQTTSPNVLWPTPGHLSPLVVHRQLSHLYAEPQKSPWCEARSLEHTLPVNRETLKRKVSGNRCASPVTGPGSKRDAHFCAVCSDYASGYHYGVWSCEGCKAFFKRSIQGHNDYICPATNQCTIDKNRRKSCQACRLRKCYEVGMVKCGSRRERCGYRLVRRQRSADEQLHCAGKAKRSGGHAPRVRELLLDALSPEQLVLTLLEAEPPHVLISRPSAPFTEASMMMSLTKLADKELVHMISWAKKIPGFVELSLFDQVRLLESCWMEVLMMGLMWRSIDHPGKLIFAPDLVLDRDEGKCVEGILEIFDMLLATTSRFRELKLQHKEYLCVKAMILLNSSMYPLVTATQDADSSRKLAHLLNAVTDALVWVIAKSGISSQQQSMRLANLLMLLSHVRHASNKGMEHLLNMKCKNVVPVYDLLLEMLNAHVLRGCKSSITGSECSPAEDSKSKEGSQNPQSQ
smiles,measurement,setting,value
"O=C(NN=Cc1ccccc1)c1ccc(O)cc1 [DY162, 4-Hydroxy-benzoic acid benzylidene-hydrazide]","Fold Activation, ERE-TK-luc, hERa","human ERα; Table 7, CV-1, drug conc 30 μM",1.74 fold
same,Activation of ERa,human ERα; specificity for ERRs,do not activate
same,"Fold activation, GAL-L-hERRb + PGC-1a",[1]; 0.3 μM,0.77 fold
same,"Fold activation, GAL-L-hERRb + PGC-1a",[1]; 1 μM,0.78 fold
same,"Fold activation, GAL-L-hERRb + PGC-1a",[1]; 3 μM (first 3 μM column),1.06 fold
same,"Fold activation, GAL-L-hERRb + PGC-1a",[1]; 3 μM (second 3 μM column),1.65 fold
same,"Fold activation, GAL-L-hERRb + PGC-1a",[1]; 10 μM,1.79 fold
same,"Fold activation, GAL-L-hERRb + PGC-1a",[1]; 30 μM,2.61 fold
same,"Fold activation, GAL-L-hERRb",[1]; 0.3 μM,1.09 fold
same,"Fold activation, GAL-L-hERRb",[1]; 1 μM,1.05 fold
same,"Fold activation, GAL-L-hERRb",[1]; 3 μM (first 3 μM column),0.87 fold
same,"Fold activation, GAL-L-hERRb",[1]; 3 μM (second 3 μM column),0.96 fold
same,"Fold activation, GAL-L-hERRb",[1]; 10 μM,1.57 fold
same,"Fold activation, GAL-L-hERRb",[1]; 30 μM,1.48 fold
same,Activation of ERRβ,[1]; in the presence of PGC-1a,can activate
same,"Fold activation, GAL-mERRg + PGC-1a",[2]; 0.3 μM,0.92 fold
same,"Fold activation, GAL-mERRg + PGC-1a",[2]; 1 μM,1.06 fold
same,"Fold activation, GAL-mERRg + PGC-1a",[2]; 3 μM (first 3 μM column),1.53 fold
same,"Fold activation, GAL-mERRg + PGC-1a",[2]; 3 μM (second 3 μM column),1.63 fold
same,"Fold activation, GAL-mERRg + PGC-1a",[2]; 10 μM,2.45 fold
same,"Fold activation, GAL-mERRg + PGC-1a",[2]; 30 μM,2.46 fold
same,"Fold activation, GAL-mERRg",[2]; 0.3 μM,1.04 fold
same,"Fold activation, GAL-mERRg",[2]; 1 μM,0.89 fold
same,"Fold activation, GAL-mERRg",[2]; 3 μM (first 3 μM column),0.92 fold
same,"Fold activation, GAL-mERRg",[2]; 3 μM (second 3 μM column),1.40 fold
same,"Fold activation, GAL-mERRg",[2]; 10 μM,1.88 fold
same,"Fold activation, GAL-mERRg",[2]; 30 μM,1.59 fold
same,Activation of ERRγ,[2]; in the presence of PGC-1a,can activate
same,"Fold Activation, ERE-TK-luc, hERb","human ERβ; Table 7, CV-1, drug conc 30 μM",1.74 fold
same,Activation of ERb,human ERβ; specificity for ERRs,do not activate
same,"Fold activation, GAL-hERRa + PGC-1a",[3]; 0.3 μM,1.26 fold
same,"Fold activation, GAL-hERRa + PGC-1a",[3]; 1 μM,1.22 fold
same,"Fold activation, GAL-hERRa + PGC-1a",[3]; 3 μM (first 3 μM column),2.11 fold
same,"Fold activation, GAL-hERRa + PGC-1a",[3]; 3 μM (second 3 μM column),1.93 fold
same,"Fold activation, GAL-hERRa + PGC-1a",[3]; 10 μM,2.18 fold
same,"Fold activation, GAL-hERRa + PGC-1a",[3]; 30 μM,2.36 fold
same,"Fold activation, GAL-hERRa",[3]; 0.3 μM,0.77 fold
same,"Fold activation, GAL-hERRa",[3]; 1 μM,0.86 fold
same,"Fold activation, GAL-hERRa",[3]; 3 μM (first 3 μM column),0.89 fold
same,"Fold activation, GAL-hERRa",[3]; 3 μM (second 3 μM column),1.51 fold
same,"Fold activation, GAL-hERRa",[3]; 10 μM,1.82 fold
same,"Fold activation, GAL-hERRa",[3]; 30 μM,2.03 fold
same,Activation of ERRα,[3]; in the presence of PGC-1a,can activate
